Legend:
[1] = assay type: physicochemical; conditions: cligand = 20 µM
Experimental: An Orion 710A pH-meter equipped with a Metrohm combined electrode (type 6.0234.100) and a Metrohm 665 Dosimat burette were used for the UV–vis titrations at 25.0 ± 0.1 °C. Ionic strength of 0.10 M (KCl) was used to keep the activity coefficients constant. The titrations were performed with carbonate-free KOH solution of known concentration (0.10 M) with 30% (v/v) DMSO content. […] The average water ionization constant (pKw) is 14.54 ± 0.05 in the 30% (v/v) DMSO/H2O mixture. Argon was always passed over the solutions during the titrations. An Agilent Cary 8454 diode array spectrophotometer was used to record the UV–vis spectra at an interval of 200–800 nm. The path length was 2 cm. Spectrophotometric titrations were performed using a 0.1 M KOH titrant solution with 30% (v/v) DMSO on samples with 30% (v/v) DMSO containing HCl, KCl and the ligand at 20 μM concentration in the pH range 2.0–12.5 in the absence or in the presence of 1 or 0.5 equiv. Cu(II) ions. Proton dissociation constants (Ka) of the TSC ligands, the overall stability constants (β) of the Cu(II) complexes and the UV–vis spectra of the individual species were calculated by the computer program PSEQUAD [41] as was done in our previous works.

[2] = DPPH free radical scavenging assay; conditions: for TEAC (Trolox equivalent antioxidant capacity): DPPH assay in ethanol; for TEAC (Trolox equivalent antioxidant capacity) / % Scavenging Effect: 25 °C; for % Scavenging Effect: DPPH:compound = 1:1 ratio after 30 min, ethanol; for IC50: in ethanol, T = 25 °C, cDPPH = 50 µM, ccompound = 5−50 µM
Procedure, shortened: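 DPPH at 50 µM final mixed with compound (5–50 µM final) in ethanol at 25.0 ± 0.1 °C in tandem cuvette, read spectrophotometrically. Antioxidant activity percentage, IC50 (concentration reducing 50% of DPPH) and Trolox equivalent capacity derived; Trolox as positive control.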

E. faecalis ATCC 29212 = experiment: MIC determination; assay type: cell-based, Enterococcus faecalis; conditions: Gram-positive E. faecalis ATCC 29212; Mueller Hinton Broth
Experimental: (§1) Klebsiella pneumoniae (ATCC 49619), Escherichia coli (ATCC 25922), Staphylococcus aureus (ATCC 25928) and Enterococcus faecalis (ATCC 29212) strains were used as Gram-negative and Gram-positive bacterial cultures. The stock solutions of the tested compounds (dissolved in 90% (v/v) DMSO/H2O at 10 mM concentration) were diluted in 100 μL of Mueller Hinton Broth, and then two-fold serial dilutions were performed. As a starting point, 100 μM concentration of the compounds was used. Then, 10^−4 dilution of an overnight bacterial culture in 100 μL of medium was added to each well, with the exception of the medium control wells. Minimum inhibitory concentration (MIC) values of compounds were determined according to our previous work.

S. aureus ATCC 25928 = experiment: MIC determination; assay type: cell-based, Staphylococcus aureus; conditions: Gram-positive S. aureus ATCC 25928; Mueller Hinton Broth
Experimental: as §1

A549 = experiment: MTT cytotoxicity assay; assay type: cell-based, human; conditions: 24 h incubation time
Experimental: (§2) To test the biological effects of the Cu(II) complexes and the ligands on human cancer cells, DU-145 prostate, A549 lung, and MCF-7 breast adenocarcinoma cells, as well as the multidrug-resistant MCF-7 KCR breast cancer cells were utilized. All the cell lines were maintained in RPMI-1640 media (Biosera, Nuaille, France) complemented with 10% fetal bovine serum (FBS), 2 mM L-glutamine, 0.01% streptomycin and 0.005% penicillin, (Biosera, Nuaille, France) and were cultured under standard conditions in a 37 °C incubator at 5% CO2 and 95% humidity. The cell lines were originally obtained from ATCC.
(§3) The effect of the complexes and of their ligands alone on the viability (on the metabolic activity) of human cancer cells was assessed by MTT assay. The tested compounds were dissolved in 90% (v/v) DMSO/H2O at 10 mM concentration. Equimolar solutions of the ligand CuCl2 salt were used for the cytotoxicity assays. The metal salts without ligands were also tested. For this, 1 × 10^4 cells/well were seeded into 96-well plates and left to grow overnight. On the following day, cells were exposed to increasing concentrations of each compound (0; 2.5; 5; 10; 15; 20 µM). After a 24 h incubation, cells were washed with PBS buffer and then incubated with 0.5 mg/mL MTT (Sigma-Aldrich, St Louis, Missouri, MO, USA) for 1 h at 37 °C. The formazan crystals were solubilized in DMSO (Molar Chemicals, Halásztelek, Hungary), and the absorbance of samples was determined at 570 nm using a Synergy HTX plate reader (BioTek, Winooski, Vermont, VT, USA). Absorption corresponding to the untreated control samples was considered as 100%.

DU-145 = experiment: MTT cytotoxicity assay; assay type: cell-based, human; conditions: DU-145, MTT, 24 h incubation time
Experimental: as §2, §3

MCF-7 KCR = experiment: MTT cytotoxicity assay; assay type: cell-based, human; conditions: 24 h incubation time
Experimental: as §2, §3

MCF-7 = experiment: MTT cytotoxicity assay; assay type: cell-based, human; conditions: MCF-7, MTT, 24 h incubation time
Experimental: as §2, §3

[3] = tested on: A549, MCF-7, MCF-7 KCR and DU-145 cells; experiment: γH2AX immunostaining (DNA double-strand breaks); assay type: cell-based, human; conditions: 20 µM, 3 h
Experimental: In order to determine the degree of DNA damage induced by the treatments, DNA double-strand breaks were visualized by γH2AX immunostaining. For this, 1 × 10^5 cells/well were seeded onto coverslips in 24-well plates. […] Then, cells were fixed with 4% formaldehyde (Molar Chemicals, Halásztelek, Hungary), permeabilized with 0.3% Triton-X-100 (Calbiochem, Merck Millipore, Darmstadt, Germany) and were blocked using 5% bovine serum albumin (BSA) (Sigma-Aldrich, St. Louis, MO, USA). Then, the samples were incubated with anti-γH2AX antibody (Thermo Fisher Scientific, Waltham, MA, USA) in 1:300 dilution followed by Alexa 488 fluorophore-conjugated goat anti-mouse secondary antibody (Abcam, Cambridge, UK) in 1:600 dilution. The fluorescence intensity of the stained samples was detected by an Olympus FV10i confocal microscope.

[4] = tested on: MCF-7 breast cancer cell line; design: method as in doi:10.1039/D0NJ01070G, PMID 34453218, PMID 33951554; conditions: cited from earlier work
[5] = cited from earlier work
[6] = Cu(II) complex (25 µM) with GSH (1.25 mM), pH 7.4, anaerobic; cited from earlier work
[7] = cyclic voltammetry of Cu(II)-(T)SC (1:1) systems; assay type: physicochemical; conditions: 90% (v/v) DMSO/H2O, pH 7.40 (10 mM HEPES), 10 mV/s, 25 °C, I = 0.1 M (nBu4NPF6)
Experimental: Cyclic voltammograms of TSCs derivatives and their Cu(II) complexes at 25.0 ± 0.1 °C were recorded. nBu4NPF6 was used as a supporting electrolyte, and measurements were performed at pH 7.4. The complexes were obtained by mixing the ligand dissolved in DMSO with aqueous solution of CuCl2 in 1:1 ratio. The final concentration of stock was 1 mM. Measurements were performed on a conventional three-electrode system under argon atmosphere using an Autolab PGSTAT 204 potentiostat/galvanostat monitored with Metrohm’s Nova software. Samples were purged for 10 min with argon before recording the cyclic voltammograms. Platinum electrode was used as the working and auxiliary electrode and Ag/AgCl/3 M KCl as the reference electrode. The electrochemical system was calibrated with an aqueous solution of K3[Fe(CN)6] (E1/2 = +0.458 V vs. NHE). Redox potentials were obtained at 10 mV/s scan rate in the range of −1.3 to +0.8 V.

A549 cells = experiment: DCFDA staining (intracellular ROS); assay type: cell-based, human; conditions: A549, 20 µM, 6 h
Experimental: (§4) DCFDA staining assay was performed to measure the total intracellular ROS level upon treatments. For this, 1 × 10^5 cells/well were seeded onto coverslips (VWR International, Radnor, Pennsylvania, PA, USA) placed in 24-well plates and left to grow. […] After treatments, cells were washed with PBS then incubated for 1 h with 10 μM DCFDA solution. The fluorescence intensity of the samples was assessed by an OLYMPUS BX51 microscope with Olympus DP70 camera and was quantified using ImageJ software.

DU-145 cells = experiment: DCFDA staining (intracellular ROS); assay type: cell-based, human; conditions: DU-145, 20 µM, 6 h
Experimental: as §4

MCF-7 KCR cells = experiment: DCFDA staining (intracellular ROS); assay type: cell-based, human; conditions: 20 µM, 6 h
Experimental: as §4

[8] = 30% (v/v) DMSO/H2O, T = 25.0 °C, I = 0.1 M (KCl)

Structure (SMILES) | TEAC (Trolox equivalent antioxidant capacity) [2] | % Scavenging Effect [2] | IC50 [2] | MIC (E. faecalis ATCC 29212) | MIC (S. aureus ATCC 25928) | IC50 (A549) | IC50 (DU-145) | IC50 (MCF-7 KCR) | IC50 (MCF-7) | DNA double-strand breaks (γH2AX) vs untreated control cells [3] | further results
CC12CCC3c4cc(C=NNC(N)=S)c(O)cc4CCC3C1CCC2=O (stereo not shown) [estrone-TSC, reference compound] | 0.7 | 49.8% | 17.8 µM | >100 µM | >100 µM | 16.7 ± 1.03 µM | > 20 µM | > 20 µM | > 20 µM | None of these treatments caused a higher degree of DNA damage | pCu5.0 ([1]; calculated at pH 5.0, cCu(II) = 20 µM): 7.7; pCu6.0 ([1]; estimated at pH 6.0, cCu(II) = 20 µM): 9.2; IC50 [4]: 6.4 µM; logβ [CuLH−1] [5, 8]: 9.44 ^2; logβ [CuL]+ [5, 8]: 13.18 ^2; pCu7.4 ([5]; pH 7.4, cCu(II) = 20 µM, cligand = 20 µM): 11.9 ^2; kobs [6]: 0.13 ^3 min^−1
C[C@]12CC[C@@H]3c4cc(/C=N/N=C(N)[S-])c([O-])cc4CC[C@H]3[C@@H]1CC[C@@H]2O.O.[Cu+2] [Cu(II)-estradiol-TSC] | 0.8 | 90.8% | 15.7 µM | 12.5 µM | 3.125 µM | 10 ± 1.04 µM | > 20 µM | 13 ± 1.09 µM | 8.4 ± 1.11 µM | None of these treatments caused a higher degree of DNA damage | formal potential E’ vs. Ag/AgCl/3M KCl [7]: +0.31 V; intracellular amount of ROS vs DMSO control (A549 cells): significantly increased; intracellular amount of ROS vs DMSO control (DU-145 cells): significantly increased; intracellular amount of ROS vs DMSO control (MCF-7 KCR cells): significantly increased

Reference: article PMC9822434, “Estradiol-Based Salicylaldehyde (Thio)Semicarbazones and Their Copper Complexes with Anticancer, Antibacterial and Antioxidant Activities” (Molecules, 2022)
